The values that follow come from US9731027B2, “Somatostatin-dopamine chimeric analogs” (Ipsen Pharma S.A.S., priority 2012, dated 2017).

Like-named read-outs stand apart in the source and are kept apart here. Bridge positions count the residues as written; N and C are the ends. Square brackets hold non-standard residues; d marks the D form. Peptide text beside a SMILES is read from it. * marks the point of attachment. X2 = CN1C[C@H](CSCC(=O)*)C[C@@H]2c3cccc4[nH]cc(c34)C[C@H]21

Assay [1] relates to pituitary tumor cells of acromegalic patients presenting with macroadenoma. Nature of the assay: Human pituitary adenoma cell growth hormone release assay. The assay is classed as cell-based. Conditions: 18 hours incubation, AlphaLISA GH immunoassay; FIG. 5. The method, then:
FIG. 1 is a graph showing the Growth hormone suppressing activity of Compound 4 (see Table I hereinbelow for its chemical name and its corresponding structural representation) on pituitary tumor cells of acromegalic patients presenting with macroadenoma. Various concentrations of Compound 4 were added to the medium and the cells were incubated for 18 hours before measurement of Growth hormone levels in the medium using the AlphaLISA Growth Hormone Immunoassay Research kit (PerkinElmer).
Various concentrations of Compounds 4 and 5 were added to the medium and the cells were incubated for 18 hours before measurement of Growth hormone levels in the medium using the AlphaLISA Growth Hormone Immunoassay Research kit (PerkinElmer).
Acromegalic patients presenting with macroadenoma underwent transsphenoidal surgery and a portion of each tumor obtained at surgery was dissociated by enzymatic and mechanical methods. The cells were cultured in DMEM medium supplemented with 10% FBS and antibiotics for 3 days. The cells were then plated in multi-well tissue culture dishes coated with extracellular matrix from bovine endothelial corneal cells at a density of 3-5×10^4 cells/well in DMEM supplemented with 10% FBS and antibiotics. After 2-3 days of culture, the medium was changed to DMEM supplemented with 1% FBS, antibiotics and 1% ITS (insulin, transferrin and selenium).
Background: In Alpha technology, singlet oxygen from a donor bead excites a nearby acceptor bead.

In assay [2] the target is T1, hSSTR2 (Homo sapiens, UniProt P30874).
T1 construct: host or cells: 'Cells expressing hSSTR2'
T1 sequence (P30874 whole entry): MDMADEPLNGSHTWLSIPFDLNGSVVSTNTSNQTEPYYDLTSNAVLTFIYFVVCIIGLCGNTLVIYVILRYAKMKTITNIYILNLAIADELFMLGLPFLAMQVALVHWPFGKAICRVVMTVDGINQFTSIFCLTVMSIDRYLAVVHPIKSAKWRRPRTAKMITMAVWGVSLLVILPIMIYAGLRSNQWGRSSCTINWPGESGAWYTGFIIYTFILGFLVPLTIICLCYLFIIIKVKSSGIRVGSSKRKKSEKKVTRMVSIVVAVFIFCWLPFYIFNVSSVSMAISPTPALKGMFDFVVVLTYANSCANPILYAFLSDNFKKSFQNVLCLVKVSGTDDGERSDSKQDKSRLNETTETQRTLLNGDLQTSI
Nature of the assay: Intracellular calcium mobilization assay (FLIPR Calcium 4), hSSTR2. The assay is classed as cell-based. For orientation: Calcium assays in cells follow changes in intracellular calcium, usually with a dye or a luminescent sensor.
Protocol: The ability of select compounds according to the present invention to activate hSSTR2 and hDRD2 was determined by the intracellular calcium mobilization assay using FLIPR Calcium 4 assay kit (Molecular Devices).
Cells expressing hSSTR2 or hDRD2 were plated in 384-well microplates in tissue culture media and incubated for 16-24 hours at 37° C. in a humidified atmosphere with 5% CO2. Medium was replaced by loading buffer containing Hank's buffered saline, 20 mM HEPES, 2.5 mM probenecid and Calcium 4 dye, and the plates were incubated at 37° C. for 60 minutes.

Assay [3] addresses T1, hSSTR2. Nature of the assay: Somatostatin receptor radioligand binding assay, hSSTR2.
Protocol: The affinities of a test compound for the human somatostatin receptors were determined by radioligand binding assays in CHO-K1 cells stably transfected with each of the human somatostatin receptor subtypes, hSSTR1-5. The cDNA coding sequences of hSSTR1 (GenBank accession No. NM_001049.1), hSSTR2 (GenBank accession No. XM_012697.1), hSSTR3 (GenBank accession No. XM_009963.1), hSSTR4 (GenBank accession No. NM_001052.1), and hSSTR5 (GenBank accession No. XM_012565.1) were subcloned into the mammalian expression vector pcDNA3.1 (Life Technologies). Clonal cell lines stably expressing each of the somatostatin receptors were obtained by transfection into CHO-K1 cells (ATCC) and subsequently selected with culture media containing 0.8 mg/mL of G418 (Life Technologies).
Membranes for in vitro receptor binding assays were obtained by the following procedures. […] The supernatant containing the plasma membranes was centrifuged at 100,000×g for 30 minutes and the pellet was resuspended in buffer containing 20 mM glycine-glycine, 1 mM MgCl2, 250 mM sucrose, pH 7.2, for storage at −80° C. […]

For `C[C@@H](O)[C@@H]1NC(=O)[C@H](CCCCN)NC(=O)[C@@H](Cc2c[nH]c3ccccc23)NC(=O)[C@H](Cc2ccccc2)NC(=O)[C@H](Cc2ccccc2)NC(=O)[C@H](CCCNC(=N)N)NC(=O)[C@H](NC[C@H](Cc2ccc(O)cc2)NC(=O)CSC[C@@H]2C[C@@H]3c4cccc5[nH]cc(c45)C[C@H]3N(C)C2)CCCCNC(=O)[C@H](Cc2ccc(F)cc2)NC1=O` [Compound 5, Dop1-Tyr-psi(CH2NH)-cyclo(DLys-Arg-Phe-Phe-DTrp-Lys-Thr-4FPhe)], the “Growth hormone suppressing activity compared to the parent somatostatin analogs” value in assay [1] is listed as “enhanced Growth hormone suppressing activity”.
With `C[C@@H](O)[C@@H]1NC(=O)[C@H](CCCCN)NC(=O)[C@@H](Cc2c[nH]c3ccccc23)NC(=O)[C@H](Cc2ccc(O)cc2)NC(=O)[C@H](Cc2ccncc2)NC(=O)[C@H](CCCNC(=N)N)NC(=O)[C@H](NC[C@@H](Cc2ccc(O)cc2)NC(=O)CSC[C@@H]2C[C@@H]3c4cccc5[nH]cc(c45)C[C@H]3N(C)C2)CCCCNC(=O)[C@H](Cc2ccccc2)NC1=O` [Compound 46, Dop1-DTyr-psi(CH2NH)-cyclo(DLys-Arg-4Pal-Tyr-DTrp-Lys-Thr-Phe)], the EC50 – broadly, the midpoint of the concentration-response curve – in assay [2] (calcium mobilization, cells expressing hSSTR2, read-out: hSSTR2 EC50 (nM) ± SEM) amounted to 60 nM. Besides, in assay [3] (CHO-K1 membranes, [125I-Tyr]-seglitide, read-out: hSSTR2 Ki (nM) ± SEM), the Ki (as a rule, the equilibrium dissociation constant of an inhibitor or competing ligand from its target) was determined as 0.52 ± 0.06 nM.
As to `C[C@@H](O)[C@@H]1NC(=O)[C@H](CCCCN)NC(=O)[C@@H](Cc2c[nH]c3ccccc23)NC(=O)[C@H](Cc2ccccc2)NC(=O)[C@H](Cc2ccccc2)NC(=O)[C@H](CCCNC(=N)N)NC(=O)[C@@H](NC[C@H](Cc2ccc(O)cc2)NC(=O)CSC[C@@H]2C[C@@H]3c4cccc5[nH]cc(c45)C[C@H]3N(C)C2)CCCNC(=O)[C@H](Cc2ccccc2)NC1=O` [Compound 43, Dop1-Tyr-psi(CH2NH)-cyclo(Orn-Arg-Phe-Phe-DTrp-Lys-Thr-Phe)], in assay [2], the EC50 amounted to 31.6 ± 4.3 nM. Moreover, the inhibition constant (Ki) in assay [3] is 1.07 ± 0.39 nM.
Take `C[C@@H](O)[C@@H]1NC(=O)[C@H](CCCCN)NC(=O)[C@@H](Cc2c[nH]c3ccccc23)NC(=O)[C@H](Cc2ccncc2)NC(=O)[C@H](Cc2ccccc2)NC(=O)[C@H](CCCNC(=N)N)NC(=O)[C@H](NC[C@H](Cc2ccc(O)cc2)NC(=O)CSC[C@@H]2C[C@@H]3c4cccc5[nH]cc(c45)C[C@H]3N(C)C2)CCCCNC(=O)[C@H](Cc2ccccc2)NC1=O` [Compound 4, Dop1-Tyr-psi(CH2NH)-cyclo(DLys-Arg-Phe-4Pal-DTrp-Lys-Thr-Phe)]: in assay [1], the “Growth hormone suppressing activity compared to the parent somatostatin analogs” value was “enhanced Growth hormone suppressing activity”.
For the molecule `C[C@@H](O)[C@@H]1NC(=O)[C@H](CCCCN)NC(=O)[C@@H](Cc2c[nH]c3ccccc23)NC(=O)[C@H](Cc2ccccc2)NC(=O)[C@H](Cc2ccccc2)NC(=O)[C@H](CCCNC(=N)N)NC(=O)[C@H](NC(=O)CSC[C@@H]2C[C@@H]3c4cccc5[nH]cc(c45)C[C@H]3N(C)C2)CCCCNC(=O)[C@H](Cc2ccccc2)NC1=O` [Compound 44, Dop1-cyclo(DLys-Arg-Phe-Phe-DTrp-Lys-Thr-Phe)] (X2-[dK]RFF[dW]KTF; lactam 1-C), the maximal response (Emax) (as a rule, the size of the effect at its maximum, as opposed to the concentration needed) in assay [2] (read-out: hSSTR2 % Emax ± SEM) was 97.1 ± 5.9%.
